Laboratory results as given in US9085608B2, “Treatment of biofilms” (LYTIX BIOPHARMA AS, priority 2008, dated 2015).
In brackets after ≈: the same amount, converted by molar mass. Entries after “also recorded” stand apart in the source; their conditions may differ. Residues, ends and D or L forms follow the SMILES beside them. *: point of attachment. NHPhenethyl = c1ccc(CCN*)cc1

Key:
[1] = system: PIA 9 S. aureus; assay type: cell-based; settings: planctonic
Source text: (§1) Minimum Inhibitory Concentration (MIC) on Planctonic Bacteria

[2] = system: 51-07 S. haemolyticus; assay type: cell-based; settings: planctonic
Source text: as §1

[3] = system: 8-16 S. epidermidis; assay type: cell-based; settings: planctonic
Source text: as §1

[4] = system: PIA 90 S. aureus; assay type: cell-based; settings: planctonic
Source text: as §1

[5] = system: 51-03 S. haemolyticus; assay type: cell-based; settings: planctonic
Source text: as §1

[6] = system: 42-77 S. epidermidis; assay type: cell-based; settings: planctonic
Source text: as §1

[7] = system: PIA 9 S. aureus biofilm; assay: MBIC, biofilm survival rate by Alamar blue, Example 3; assay type: cell-based; settings: 24 h
Procedure: (§2) Biofilm formation was induced in 96-well flat bottom microtitre plates (Nunclon Surface, NUNC). First, overnight cultures were diluted 1:100 in MHIIB (S. epidermidis and S. haemolyticus) or tryptic soy broth (TSB) with 5% glucose and 5% NaCl (S. aureus). 200 ml of this bacterial suspension (10^7 cfu/ml) was added to each well and incubated for 24 h at 37° C. After 24 h the wells were carefully washed twice with phosphate-buffered saline (PBS) to remove planktonic bacteria. The washing procedure was carefully evaluated by measuring metabolic activity of the PBS with the Alamar blue method, described in detail below.
(§3) The washed biofilms were subjected to treatment with the Compounds at different concentrations.
(§4) Trifluoroacetate salts of the compounds were dissolved in sterile water and diluted to 5 mg/L, 50 mg/L and 500 mg/L in MHIIB. […] of the Compounds, in different concentrations, were added to each well and incubated for 24 h at 37° C. Positive controls were untreated biofilms only added 200 MHIIB. Negative controls were only 200 μl MHIIB, with no bacteria added.
(§5) The metabolic activity of the biofilm was quantified with a slightly modified method previously described by Pettit et al. Antimicrob. Agents Chemother. 2005; 49: 2612-7. Briefly, after the 24 h incubation with antimicrobial agents the wells were again washed twice with PBS and then added […] MHIIB with 5% Alamar blue (AB; Biosource, Camarillo, Calif., USA). AB is a redox indicator which both fluoresces and changes colour in response to chemical reduction. The extent of reduction is a reflection of bacterial cell viability. After 1 h incubation at 37° C., absorbance was recorded at 570 and 600 nm using Versamax tuneable microplate reader (Molecular Devices, Sunnyvale, Calif., USA). All assays were performed 3 times with 8 parallels. The highest and lowest value of each run was excluded from the analyses, and the remaining 18 values were averaged.

[8] = system: 8-16 S. epidermidis biofilm; assay: as above; assay type: cell-based; settings: 24 h
Procedure: as §2, §3, §4, §5

[9] = system: 42-77 S. epidermidis biofilm; assay: as above; assay type: cell-based; settings: 24 h
Procedure: as §2, §3, §4, §5

[10] = system: 51-03 S. haemolyticus biofilm; assay: as above; assay type: cell-based; settings: 24 h
Procedure: as §2, §3, §4, §5

[11] = system: PIA 90 S. aureus biofilm; assay: as above; assay type: cell-based; settings: 24 h
Procedure: as §2, §3, §4, §5

[12] = system: 51-07 S. haemolyticus biofilm; assay: as above; assay type: cell-based; settings: 24 h
Procedure: as §2, §3, §4, §5

[13] = system: six staphylococcal strains (2 S. epidermidis, 2 S. haemolyticus and 2 S. aureus); assay: Susceptibility testing under planktonic growth condition, EUCAST breakpoints; assay type: cell-based; settings: all 6 strains; EUCAST criteria
Procedure: The six staphylococcal strains (2 S. epidermidis, 2 S. haemolyticus and 2 S. aureus) used in this study were selected based on their previously known biofilm forming capacity (Table 1).
(§6) Bacteria were grown overnight at 37° C. in cation adjusted Mueller-Hinton II Broth (MHIIB).
We determined the MICs of oxacillin, gentamicin, tetracycline, vancomycin and linezolid using E-test (AB Biodisk, Solna, Sweden) and MICs of rifampicin using broth microdilution assay. Breakpoints were interpreted according to EUCAST criteria. We selected 3 different SAMPs (Compounds A, B and C; Lytix Biopharma, Tromsø, Norway—see FIG. 1) based on previously known antimicrobial activities, and determined their exact MICs with broth microdilution assay. All 3 SAMPs are tripeptides with two arginine residues providing their cationic moieties (FIG. 1). The lipophilic bulk is provided by a modified tryptophane derivate. The difference between the compounds is the size of the C-terminal modification; Compound A has the smallest and Compound B has the largest C-terminal modification (FIG. 1). The molecular weights of the SAMPs are in the range of 700-800 Dalton.

[14] = system: S. haemolyticus TUH 51-07 biofilm; assay: Biofilm imaging, LIVE/DEAD staining and confocal laser scanning microscopy; assay type: cell-based, Staphylococcus haemolyticus; settings: 50 mg/L, 24 h treatment
Procedure: One ml aliquots of MHIIB-diluted overnight culture was used to grow S. haemolyticus TUH 51-07 biofilm on plastic coverslides (Thermanox, cellculture treated on one side, NUNC, Roskilde, Denmark) in 24-well dishes (Falcon 3047, Becton Dickinson, NJ, USA) for 24 h. The coverslides were then washed carefully with PBS, moved to a new plate and treated for 24 h with tetracycline 50 mg/L and 500 mg/L, vancomycin 50 mg/L and 500 mg/L, or Compound A 50 mg/L and 500 mg/L. The coverslides were washed again with […] and stained with a LIVE/DEAD kit (Invitrogen Molecular Probes, Eugene, Oreg., USA) following the manufacturer's instructions. This stain contains SYTO 9 (green fluorescent) and propidium iodide (PI; red fluorescent), both binding to DNA. When used alone, the SYTO 9 generally stains all bacteria in a population; both those with intact and those with damaged membranes. In contrast, PI penetrates only bacteria with damaged membranes, causing a reduction in the SYTO 9 stain green fluorescence when both dyes are present. We examined treated and untreated biofilms with a Leica TCS SP5 (Leica Microsystems CMS Gmbh, Mannheim, Germany) confocal laser scanning microscope (CLSM). Images were obtained using a 63×1.2 NA HCX PL APO water immersion lens. For detection of SYTO9 (green channel), we used the 488 nm line of the argon laser and a detection bandwidth of 495-515 nm. For PI detection (red channel), we used the 561 nm line and a detection bandwidth of 615-660 nm. The two fluorescent-signals were collected sequentially at 400 Hz. Image analyses and export was performed in Leica LAS AF version 1.8.2.

[15] = system: S. aureus PIA9 biofilm; assay: Biofilm metabolic activity, Alamar blue reduction; assay type: cell-based, Staphylococcus aureus
Procedure: as §2, with “NUNC, Roskilde, Denmark).” for “NUNC).”, “Two hundred” for “200 ml”, “was” for “was carefully”, “below. […]” for “below.”
We quantified the metabolic activity of biofilm with a slightly modified method previously described by Pettit et al. in Antimicrob. […] After 1 h incubation at 37° C., absorbance was recorded at 570 and 600 nm using Versamax tuneable microplate reader (Molecular Devices, Sunnyvale, Calif., USA). […]
The percent reduction of AB was calculated according to the manufacturer's formula (Invitrogen, Carlsbad, USA). We calculated mean and standard deviations (SD) of all repeated measurements. Pearson's two-tailed correlation between the AB method and the CV method (FIG. 2) was calculated on averaged data from all 6 staphylococcal strains. […]

[16] = system: Staphylococcus epidermidis RP62A ATCC 35984; assay: microbe, parasite or virus in culture; settings: Staphylococcus epidermidis, ATCC35984
Procedure: as §6
(§7) We determined the MICs of oxacillin, gentamicin, tetracycline, vancomycin and linezolid using E-test (AB Biodisk, Solna, Sweden) and MICs of rifampicin using broth microdilution assay. Breakpoints were interpreted according to EUCAST criteria. […] All 3 SAMPs are tripeptides with two arginine residues providing their cationic moieties (FIG. 1). The lipophilic bulk is provided by a modified tryptophane derivate. […] The molecular weights of the SAMPs are in the range of 700-800 Dalton.

[17] = system: Staphylococcus epidermidis TUH 08-16; assay: microbe, parasite or virus in culture; settings: Staphylococcus epidermidis, TUH0816
Procedure: as §6, §7

[18] = system: Staphylococcus aureus PIA 9; assay: microbe, parasite or virus in culture; settings: Staphylococcus aureus, PIA9
Procedure: as §6, §7

[19] = system: Staphylococcus haemolyticus TUH 51-07; assay: microbe, parasite or virus in culture; settings: Staphylococcus haemolyticus, TUH5107
Procedure: as §6, §7

[20] = system: Staphylococcus haemolyticus TUH 51-03; assay: microbe, parasite or virus in culture; settings: Staphylococcus haemolyticus, TUH5103
Procedure: as §6, §7

[21] = system: Staphylococcus aureus PIA90; assay: microbe, parasite or virus in culture; settings: Staphylococcus aureus, PIA90
Procedure: as §6, §7

[22] = system: 24 h old biofilm of 6 different staphylococcal strains; assay: Biofilm metabolic activity, Alamar blue reduction; assay type: cell-based, S. epidermidis, S. haemolyticus, S. aureus; settings: 50 mg/L; mature biofilms from 4 out of the 6 strains tested
Procedure: Biofilm formation was induced in 96-well flat bottom microtitre plates (Nunclon Surface, NUNC, Roskilde, Denmark). First, overnight cultures were diluted 1:100 in MHIIB (S. epidermidis and S. haemolyticus) or tryptic soy broth (TSB) with 5% glucose and 5% NaCl (S. aureus). Two hundred of this bacterial suspension (10^7 cfu/ml) was added to each well and incubated for 24 h at 37° C. After 24 h the wells were carefully washed twice with phosphate-buffered saline (PBS) to remove planktonic bacteria. The washing procedure was evaluated by measuring metabolic activity of the PBS with the Alamar blue method, described in detail below.
The washed biofilms were subjected to treatment with antibiotics or SAMPs at different concentrations. Stock solutions of the tetracycline (Sigma Aldrich), vancomycin (Alpharma) and linezolid (Pfizer) were diluted in MHIIB to 5 mg/L, 50 mg/L and 500 mg/L, and rifampicin (Sigma Aldrich) was diluted in MHIIB to 0.01 mg/L, 0.1 mg/L and 1 mg/L. Trifluoroacetate salts of the SAMPs were dissolved in sterile water and diluted to 5 mg/L, 50 mg/L and 500 mg/L in MHIIB. 200 μl of antibiotics or SAMPs, in different concentrations, were added to each well and incubated for 24 h at 37° C. Positive controls were untreated biofilms only added 200 μl MHIIB. Negative controls were only 200 μl MHIIB, with no bacteria added.
We quantified the metabolic activity of biofilm with a slightly modified method previously described by Pettit et al. in Antimicrob. […] Briefly, the wells were washed twice with PBS. We then added 250 μl MHIIB with 5% Alamar blue (AB; Invitrogen, Carlsbad, Calif., USA) to each well. AB is a redox indicator which both fluoresces and changes colour in response to chemical reduction. The extent of reduction is a reflection of bacterial cell viability. After 1 h incubation at 37° C., absorbance was recorded at 570 and 600 nm using Versamax tuneable microplate reader (Molecular Devices, Sunnyvale, Calif., USA). […] The highest and lowest value of each run was excluded from the analyses, and the remaining 18 values were averaged.
We defined two levels of antimicrobial suppression of metabolic activity.

Compound: N=C(N)NCCC[C@H](NC(=O)[C@H](Cc1c[nH]c2ccccc12)NC(=O)[C@H](Cc1c[nH]c2ccccc12)NC(=O)[C@H](CCCNC(=N)N)NC(=O)[C@@H](N)Cc1c[nH]c2ccccc12)C(=O)NCCc1ccccc1 [ME 172, W-R-W-W-R-NH-CH2CH2Ph] (H-WRWWR-NHPhenethyl)
- MIC [1]: 16 µg/mL (≈ 16.1 µM)
- MIC [2]: 8 µg/mL (≈ 8.06 µM)
- MIC [3]: 16 µg/mL (≈ 16.1 µM)
- MIC [4]: 32 µg/mL (≈ 32.3 µM)
- MIC [5]: 8 µg/mL (≈ 8.06 µM)
- MIC [6]: 16 µg/mL (≈ 16.1 µM)
- MBIC measured as survival rate ([7]; 5 μg/ml): 100%
- MBIC measured as survival rate ([7]; 50 μg/ml): 100%
- MBIC measured as survival rate ([7]; 500 μg/ml): 18%
- MBIC measured as survival rate ([8]; 5 μg/ml): 100%
- MBIC measured as survival rate ([8]; 50 μg/ml): 80%
- MBIC measured as survival rate ([8]; 500 μg/ml): 20%
- MBIC measured as survival rate ([9]; 5 μg/ml): 100%
- MBIC measured as survival rate ([9]; 50 μg/ml): 85%
- MBIC measured as survival rate ([9]; 500 μg/ml): 10%
- MBIC measured as survival rate ([10]; 5 μg/ml): 100%
- MBIC measured as survival rate ([10]; 50 μg/ml): 6%
- MBIC measured as survival rate ([10]; 500 μg/ml): 8%
- MBIC measured as survival rate ([11]; 5 μg/ml): 100%
- MBIC measured as survival rate ([11]; 50 μg/ml): 55%
- MBIC measured as survival rate ([11]; 500 μg/ml): 10%
- MBIC measured as survival rate ([12]; 5 μg/ml): 100%
- MBIC measured as survival rate ([12]; 50 μg/ml): 41%
- MBIC measured as survival rate ([12]; 500 μg/ml): 12%

Compound: CN[C@H](CC(C)C)C(=O)N[C@H]1C(=O)N[C@@H](CC(N)=O)C(=O)N[C@H]2C(=O)N[C@H]3C(=O)N[C@H](C(=O)N[C@H](C(=O)O)c4cc(O)cc(O)c4-c4cc3ccc4O)[C@H](O)c3ccc(c(Cl)c3)Oc3cc2cc(c3O[C@@H]2O[C@H](CO)[C@@H](O)[C@H](O)[C@H]2O[C@H]2C[C@](C)(N)[C@H](O)[C@H](C)O2)Oc2ccc(cc2Cl)[C@H]1O [VAN, vancomycin]
- susceptibility under planktonic growth [13]: susceptible; also recorded: sensitive
- LIVE/DEAD staining of biofilm cells (CLSM) [14]: predominantly green cells; also recorded: most bacteria were not killed
- resistance of biofilm [15]: completely resistant
- MIC [16]: 4 µg/mL (≈ 2.76 µM)
- MIC [17]: 2 µg/mL (≈ 1.38 µM)
- MIC [18]: 2 µg/mL (≈ 1.38 µM)
- MIC [19]: 2 µg/mL (≈ 1.38 µM)
- MIC [20]: 4 µg/mL (≈ 2.76 µM)
- MIC [21]: 2 µg/mL (≈ 1.38 µM)
- suppression of metabolic activity (AB reduction) [22]: strong suppression (A strong suppression was obtained if an agent, after adjusting for the negative control, at a certain concentration caused 75% reduction of AB compared to positive control)
